“Also recorded” adds a separate entry of the source.
Tests used:
[1] = tested on: ATGL; assay: ATGL response to glucose deprivation after UCB9608-mediated depletion of Golgi Ptdlns4P; format: cell-based; details: Golgi Ptdlns4P depleted by UCB9608
[2] = tested on: human liver graft
Protocol: A human liver graft was perfused for 8 days, after being discarded from all Swiss transplant centers. Use of discarded grafts was approved by local authorities (Kantonale Ethik Kommission Zürich KEK Nr. 2017-000412). […] The liver was procured with a total ischemia time of 40 min after circulatory death of the donor. It was flushed with IGL-1 solution and perfused for 2 h with Belzer MPS at 8°C. The infrahepatic vena cava was closed with a suture and the hepatic artery, portal vein, suprahepatic vena cava and common bile duct were cannulated with steel cannulas. The graft was subsequently perfused with whole blood and a custom built normothermic perfusion machine (Eshmuminov,D. et al, Nat Biotechnol 38, (2020)). Hepatic arterial pressure was controlled to be 80/50 mmHg, allowing for an average flow of 0.25 L/min. A vasodilator, epoprostenol, was automatically infused to keep arterial flow stable. Oxygenation was automatically controlled with a setpoint partial pressure of oxygen equal to 12 kPa. Portal venous flow was controlled to be at 1 L/min, resulting in a pressure of 2 mmHg on average. Further, oxygenation of portal blood was automatically regulated to achieve 65% saturation in the vena cava. Use of an electric pinch valve further allowed for pressure regulation in the vena cava, keeping a constant pressure of 0 mmHg. Glucose levels were automatically controlled by using a real-time glucose sensor (CCIT) and automated insulin infusions, keeping glucose levels at 7 mmol/L from the second day of perfusion onwards. A dialysis bypass was used to clear waste metabolites and control haematocrit levels by using a fixed dialysate influx rate of 200 mL/h and an automatically controlled outflux. […] After 8 days of perfusion, the liver weight decreased to 1507g (without gallbladder) and was sent for pathological examination.
Perfusate was mixed with 6 units of red blood cell concentrate (A+), 5 units of fresh frozen […], one unit of thrombocytes and 200 mL of 20% human albumin (CSL Behring). An initial bolus of 2.25 g Tazobactam and 500 mg Methylprednisolone was administered after priming. During the perfusion, 1000 U of heparin were infused per hour. Further, 2.25 g of Tazobactam, 3.36 g of ursodesoxycholic acid and 500 mg of methylprednisolone were continuously infused per day. UCB9608 was administered as a daily bolus by adding 300 µL of 50 mM solution directly to the blood reservoir, targeting a final concentration in the perfusate of 10 µM. On the first day, a larger bolus of 600 µL was given.
Adipose depots, liver pieces, differentiated iBAs, HepG2, HEK293T and HEK293-AAV cell types were homogenized in RIPA buffer (50 mM Tris-HCl pH 7.4, 150 mM NaCl, 2 mM EDTA, 1.0% Triton X100, 0.5% sodium deoxycholate) with protease inhibitors (Complete, Roche) and phosphatase inhibitors (Halt phosphatase inhibitor cocktail, ThermoFisher). The homogenates were centrifuged at 12,000×g for 10 min at 4°C to remove debris and collect whole cell extract (WCE). The concentration of WCE was determined by DC Protein Assay (Bio-Rad). After boiling the sample with Lämmeli buffer at 95°C for 5 min, equal amount of proteins was loaded and separated on 12% SDS-PAGE. […]

[3] = tested on: male C57BL/6N mice; assay: Murine NASH model (HFD, glucose/fructose water, thermoneutral housing); format: in vivo, mouse
Protocol: To model NASH in murine liver, male C57BL/6N mice were challenged with HFD for 24 weeks in conjunction with 18.9 g/L glucose&23.1 g/L fructose containing drinking water under thermoneutral housing condition (29°C) for 12 weeks before the administration of UCB9608 through HFD (15 mg/kg) for another 12 weeks. Then the mice were analysed in EcoMRI for body composition measurement before 6 hours fasting, followed by dissection to harvest liver and sample blood.
Total RNA was extracted from adipose depots, liver or in vitro cell cultures via Trizol reagent (Invitrogen) according to the manufacturer's instructions. Genomic DNA was removed from the crude RNA samples by DNase treatment (NEB BioLabs). For individual sample, 1 µg of total RNA was used to convert into cDNA library by using the High-Capacity cDNA Reverse transcription kit (Applied Biosystems, 4368813). Quantitative PCR was performed using KAPA SYBR FAST Universal kit (Roche, KK4618) on ViiA7 (Applied Biosystems) and the relative transcript levels were normalized to […] expression via ΔΔCt method. Table 2: Sequences of qPCR primers used in this study.
Plasma collected from mice under different conditions was used to determine levels of lipolysis and liver injury. FFA levels were measured via NEFA assay kit (Wako NEFA kit). TG levels were determined via TG assay kit (Roche Trig/GB reagent). ALT (MAK052, Sigma) and AST (MAK055, Sigma) assay kits were used to determine ALT and AST activity according to the manufacturer's instructions. The absorbance was monitored using Synergy Gen5 Platereader.
Weight of liver pieces (50-100 mg) was recorded before homogenization by 1 mL isopropanol per 50 mg tissue. The homogenates were incubated at room temperature with rotating before spinning down to remove debris at 2000×g for 10 min and collect supernatant. The TG levels were determined (Roche Trig/GB reagent) in Synergy Gen5 Platereader and normalized to the weight of liver pieces.
For NASH cohort, livers were dissected and fixed with 4% PFA in PBS for 24 h at 4°C. The samples were sent to the University of Zurich for histologic analyses. Briefly, liver tissues were dehydrated and embedded in paraffin and underwent section at 3 µm. The slides were stained with hematoxylin and eosin (H&E) and Gomori Green Trichrome directly or stained with anti-cleaved Caspase 3 after antigen retrieval. Afterwards, the images were captured by digital slide scanners and the grade of steatosis, ballooning, inflammation and fibrosis were quantified via the NASH Clinical Research Network Scoring System (Kleiner,D.E. et al. Hepatology 41, (2005)). To perform ORO staining, the fixed samples were sectioned, and the slides were stained via Oil Red O solution, followed by counter-staining with eosin. The images were acquired by digital slide scanners.

[4] = tested on: mouse model with organ engraftment; details: in vivo; cited from earlier work
[5] = Precipitation of DMSO solution on mixing with water; format: physicochemical; details: dissolved in DMSO, not circulated
[6] = biopsies from both lobes, unchanged in the two control grafts
[7] = NASH mice, UCB9608 through HFD (15 mg/kg) 12 weeks
[8] = NASH mice, liver histology, UCB9608 12 weeks vs vehicle

## COc1ccc(NC(=O)N2CCN(c3nc(N)nc4c3cnn4C)[C@@H](C)C2)c(C)c1 [UCB9608]
[1]
  ATGL response to glucose deprivation: loss of ATGL regulation
[2]
  cell viability (ATP analysis and histology): remained until the end of perfusion
  time liver function was well preserved: at least 6 days
[2]; after 8 days, without gallbladder, initial weight 2740g with gall bladder
  liver weight after perfusion: 1507 g
[2]; after 8 days, 15% before perfusion, pathological examination
  macrovesicular steatosis after perfusion: less than 5%
[2]; [6]
  ATGL levels in liver biopsies: substantially elevated
  TG deposition in liver biopsies: reduced
[2]; during perfusion, UCB9608 daily, target 10 µM
  non-esterified fatty acids (NEFAs) from dialysate: detected
[3]; NASH livers, qPCR (Fig. 7j)
  inflammation levels by transcript levels of inflammatory markers: mitigation
[3]; NASH livers, qPCR (Fig. 7k), vs vehicle
  degree of fibrosis-related marker expression: substantially ameliorated
[3]; [7]
  ALT activity in the plasma: reduction
  AST activity in the plasma: reduction
  TG levels in the plasma: reduction; also recorded: reduced
  fatty acid oxidation (liver): significant elevation
  hepatic TG levels: reduced
  liver mass/body weight ratio: reduced
[3]; NASH mice, UCB9608 through HFD (15 mg/kg) 12 weeks, EcoMRI
  fat mass: significant loss
[3]; NASH mice, UCB9608 through HFD (15 mg/kg) 12 weeks, vs vehicle
  body weight: significant loss
[3]; [8]
  NAFLD activity score: significantly lower
  fibrosis grade: significantly lower
  inflammation levels: significantly lower
  liver injury: significantly lower
  steatosis grade: significantly lower
[4]
  efficacy in the mouse model with organ engraftment: effective
[5]
  behaviour of DMSO solution mixed with water: precipitated

From patent EP4623912A1, “A METHOD FOR DEFATTENING A STEATOTIC LIVER EX VIVO” (ETH Zurich, priority 2024, dated 2025)
